Data taken from patent US7033829B2, “Method to inhibit cell growth using oligonucleotides” (Trustees of Boston University, priority 2000, dated 2006).
Oligonucleotides are written 5' to 3', each unit as a sugar letter and its base; * is a phosphorothioate linkage, no mark a phosphodiester; rarer units and linkages stand in square brackets, end groups in braces. Plain capitals give the bases only. d = 2'-deoxy (DNA); {P} = phosphate

How the values were obtained:
MM-AN cells = assay: Metastatic potential of pretreated MM-AN cells in SCID mice; assay type: in vivo; details: for animals that developed multiple metastases: 5 mice per group, 40 days; for METASTASIS FREE: animals of 5; for Total Tumor Load (5 animals): mouse, in vivo; for Average tumors per animal: visible tumors, 40 days (diluent 15.8)
Description: To study the effect of T-oligo on the metastatic potential of melanoma cells, cultures of MM-AN cells were treated for 48 hours with T-oligo, complement or diluent alone and harvested as described above. 1×10^6 cells in balanced salt solution were injected into the lateral tail vein of 5-week old SCID mice (3 groups of 5 mice). After 40 days, mice were sacrificed by CO2 inhalation, an autopsy performed and organs examined macroscopically for visible metastatic lesions.

S91 cells = assay: Cellular uptake of FAM-labeled oligonucleotides in S91 cells; assay type: in vitro ADME, mouse; details: 4 hours
Description: Fluorescein phosphoramidite (FAM) labeled oligonucleotides were added to cultures of S91 cells for 4 hours and the cells were then prepared for confocal microscopy. Nuclei, identified by staining with propidium iodide, appeared red and FAM-labeled oligonucleotides appeared green. Co-localization of red and green signals was assigned a yellow color by the computer. […] There was no change in the profile of oligonucleotide uptake after 6 and 24 hours.

mouse skin = assay: Photodamage of UVB-irradiated XPA+/+ and XPA−/− mouse skin; assay type: in vivo; details: XPA−/− mice; 72 hours after last UV (diluent 15±5)
Source text: Patients with a mutated xeroderma pigrnentosum group A (XPA) gene have a greater than 1000 fold increased risk of UV-induced skin cancer. XPA^−/− mice mimic the human syndrome [Kraemer, K. et al., pp. 256–261 In: Molecular Biology of Aging (Bohr, V. A., et al., eds.) Munksgaard, Copenhagen, 1999]. We have previously shown that oligonucleotides, particularly thymidine dinucleotide (pTT) and pGAGTATGAG (SEQ ID NO:1) that are partial homologs of the telomere overhang tandem repeat TTAGGG (SEQ ID NO:11), increase levels of proteins involved in nucleotide excision repair and enhance the DNA repair rate. […] The mice were UV irradiated on day 5 with a previously determined erythemogenic UVB dose. […] Seventy-two hours after the last dose of […], the mouse skin was processed histologically to assess general morphology, proliferation (Ki-67) [Ohike N. and T Morohoshi, Pathol Int (2001), 51:770–777; Billgren, A. M. et al., Breast Cancer Res Treat (2002), 71:161–170], cyclobutane pyrimidine dimers (CPDs) determined by specific antibody binding, and on-going DNA repair [proliferating cell nuclear antigen (PCNA); see Savio, M. et al., Carcinogenesis (1998) 19:591–596; Rudolph, P. et al., Hum Pathol (1998) 29:1480–1487].

p21/Waf 1/Cip 1 gene = assay: p21 mRNA Northern blot in SCC12F cells; assay type: cell-based, human; details: for p21 mRNA level relative to diluent control: 48 hours, FIG. 13; for increase of p21/Waf 1/Cip 1 mRNA level: within 48 hours
Description: The induction of melanogenesis in Cloudman S91 mouse melanoma cells by a five-nucleotide oligomer CATAC (SEQ ID NO: 6) and a nine-nucleotide oligomer, GAGTATGAG (SEQ ID NO: 1) was examined. Duplicates of Cloudman S91 murine melanoma cells were incubated with either 100 μM oligo or an equal volume of diluent (H2O) for 5 days. The cells were then collected, counted, and an equal number of cells were pelleted for melanin analysis. […] Variations of this oligonucleotide were evaluated: a scrambled 9-mer (TAGGAGGAT; SEQ ID NO: 2) and two truncated versions, a 7-mer (AGTATGA; SEQ ID NO: 3) and second 5-mer (GTATG; SEQ ID NO: 4). […] The truncated versions (SEQ ID NOs: 3 and 4) were also active, inducing 640% and 670% increases, respectively.
pTpT was previously found to inhibit cell cycle progression, at least in part through activation of p53 and subsequent upregulation of the cyclin dependent kinase inhibitor p21. Cultures of the human keratinocyte line SCC12F were treated with pTpT, SEQ ID NO: 1, SEQ ID NO: 6 or diluent alone as a negative control, collected and counted 48 hours later and processed for northern blot analysis of p21 mRNA expression. […] Thus, the sequences of the present invention activate p53 and inhibit cell proliferation similar to the effect of pTpT.

| Substance | animals that developed multiple metastases (MM-AN cells) | Animals with tumors (MM-AN cells; Site: Adrenal) | Total tumors (MM-AN cells; Site: Adrenal) | Animals with tumors (MM-AN cells; Site: Bone) | Total tumors (MM-AN cells; Site: Bone) | Animals with tumors (MM-AN cells; Site: Brain) | Total tumors (MM-AN cells; Site: Brain) | Animals with tumors (MM-AN cells; Site: Brown fat) | Total tumors (MM-AN cells; Site: Brown fat) | Animals with tumors (MM-AN cells; Site: Kidney) | Total tumors (MM-AN cells; Site: Kidney) | Animals with tumors (MM-AN cells; Site: Liver) | Total tumors (MM-AN cells; Site: Liver) | Animals with tumors (MM-AN cells; Site: Lung) | Total tumors (MM-AN cells; Site: Lung) | Animals with tumors (MM-AN cells; Site: Miscellaneous) | Total tumors (MM-AN cells; Site: Miscellaneous) | Animals with tumors (MM-AN cells; Site: Pancreas) | Total tumors (MM-AN cells; Site: Pancreas) | METASTASIS FREE (MM-AN cells) | other results |
| --- | --- | --- | --- | --- | --- | --- | --- | --- | --- | --- | --- | --- | --- | --- | --- | --- | --- | --- | --- | --- | --- |
| pCTAACCCTAAC (DNA, 5' {P}, backbone not given here) [SEQ ID NO: 9, reference compound] | All five animals | 2/5 | 3 | 1/5 | 3 | 3/5 | 3 | 3/5 | 8 | 4/5 | 7 | 2/5 | 4 | 3/5 | 6 | 1/5 | 7 | 4/5 | 7 | 0/5 | Total Tumor Load (5 animals) (MM-AN cells): 48; Average tumors per animal (MM-AN cells): 9.6 |
| pGAGTATGAG (DNA, 5' {P}, backbone not given here) [SEQ ID NO: 1] |  |  |  |  |  |  |  |  |  |  |  |  |  |  |  |  |  |  |  |  | cellular uptake and localization (confocal microscopy, FACS) (S91 cells): intense staining that strongly localized to the nucleus; CPD (+) cells per 400× microscopic field (mouse skin): none; p21 mRNA level relative to diluent control (p21/Waf 1/Cip 1 gene): ~3 fold; increase of p21/Waf 1/Cip 1 mRNA level (p21/Waf 1/Cip 1 gene): 200–300% |
| pGTTAGGGTTAG (DNA {P}-dGdTdTdAdGdGdGdTdTdAdG) [SEQ ID NO: 5] | one of five animals | 1/5 | 2 | 0/5 | 0 | 1/5 | 2 | 0/5 | 0 | 0/5 | 0 | 0/5 | 0 | 0/5 | 0 | 0/5 | 0 | 0/5 | 0 | 4/5 | reduction of average volume of macroscopic metastatic tumors (MM-AN cells; compared to complement treated animals): ~80%; reduction of average volume of macroscopic metastatic tumors (MM-AN cells; compared to diluent treated animals): about 85%; Total Tumor Load (5 animals) (MM-AN cells): 4; Average tumors per animal (MM-AN cells): 0.8 |
| thymidine dinucleotide [pTpT] |  |  |  |  |  |  |  |  |  |  |  |  |  |  |  |  |  |  |  |  | cellular uptake and localization (confocal microscopy, FACS) (S91 cells): strong green fluorescence in the cytoplasm, but only a small amount of nuclear localization; CPD (+) cells per 400× microscopic field (mouse skin): none; p21 mRNA level relative to diluent control (p21/Waf 1/Cip 1 gene): twice that of control cells; increase of p21/Waf 1/Cip 1 mRNA level (p21/Waf 1/Cip 1 gene): 100–150% |
